Reference: ChEMBL document CHEMBL1155271, “Synthesis, crystal structures and antibacterial activity studies of aza-derivatives of phytoalexin from cotton plant--gossypol” (2009)
In brackets after ≈: the same amount, converted by molar mass. Activity calls are given as the source filed them. The rule behind the calls is not given here.

Tests used:
Type in all cases: functional
Staphylococcus aureus [1] = assay: Antimicrobial activity against methicillin-resistant Staphylococcus aureus 140/6 by twofold dilution technique
Micrococcus luteus [2] = assay: Antimicrobial activity against Micrococcus luteus ATCC 9341 after 18 hrs by twofold dilution technique; conditions: ATCC 9341, 18 h
Staphylococcus aureus [3] = assay: Antimicrobial activity against Methicillin susceptible Staphylococcus aureus 213/7 by twofold dilution technique
Staphylococcus aureus [4] = assay: Antimicrobial activity against Methicillin susceptible Staphylococcus aureus 207/7 by twofold dilution technique
Staphylococcus aureus [5] = assay: Antimicrobial activity against Staphylococcus aureus ATCC 29213 after 18 hrs by twofold dilution technique; conditions: ATCC 29213, 18 h
Staphylococcus aureus [6] = assay: Antimicrobial activity against methicillin-resistant Staphylococcus aureus 217/7 by twofold dilution technique
Staphylococcus aureus [7] = assay: Antimicrobial activity against Staphylococcus aureus ATCC 29213 at 400 ug after 18 hrs by disk diffusion method; conditions: ATCC 29213, 18 h, read-out: DIZ
Staphylococcus aureus [8] = assay: Antimicrobial activity against methicillin-resistant Staphylococcus aureus 144/6 by twofold dilution technique
Bacillus cereus [9] = assay: Antimicrobial activity against Bacillus cereus ATCC 11778 at 400 ug after 18 hrs by disk diffusion method; conditions: ATCC 11778, 18 h, read-out: DIZ
Staphylococcus aureus [10] = assay: Antimicrobial activity against Methicillin susceptible Staphylococcus aureus 239/7 by twofold dilution technique
Staphylococcus aureus [11] = assay: Antimicrobial activity against methicillin-resistant Staphylococcus aureus 146/6 by twofold dilution technique
Staphylococcus aureus [12] = assay: Antimicrobial activity against Methicillin susceptible Staphylococcus aureus 208/7 by twofold dilution technique
[13] = tested on: Staphylococcus epidermidis; assay: Antimicrobial activity against Staphylococcus epidermidis ATCC 12228 by twofold dilution technique
Staphylococcus aureus [14] = assay: Antimicrobial activity against methicillin-resistant Staphylococcus aureus 143/6 by twofold dilution technique
Micrococcus luteus [15] = assay: Antimicrobial activity against Micrococcus luteus ATCC 10240 at 400 ug after 18 hrs by disk diffusion method; conditions: ATCC 10240, 18 h, read-out: DIZ
Enterococcus hirae [16] = assay: Antimicrobial activity against Enterococcus hirae ATCC 10541 at 400 ug after 18 hrs by disk diffusion method; conditions: for zone of inhibition at 400 µg/disc: ATCC 10541, 18 h, read-out: DIZ
Staphylococcus aureus [17] = assay: Antimicrobial activity against Staphylococcus aureus ATCC 6538 at 400 ug after 18 hrs by disk diffusion method; conditions: ATCC 6538, 18 h, read-out: DIZ
Staphylococcus aureus [18] = assay: Antimicrobial activity against methicillin-resistant Staphylococcus aureus 218/7 by twofold dilution technique
[19] = tested on: Staphylococcus epidermidis; assay: Antimicrobial activity against Staphylococcus epidermidis ATCC 12228 at 400 ug after 18 hrs by disk diffusion method; conditions: ATCC 12228, 18 h, read-out: DIZ
Staphylococcus aureus [20] = assay: Antimicrobial activity against methicillin-resistant Staphylococcus aureus 136/6 by twofold dilution technique
Bacillus cereus [21] = assay: Antimicrobial activity against Bacillus cereus ATCC 11778 after 18 hrs by twofold dilution technique; conditions: ATCC 11778, 18 h
Staphylococcus aureus [22] = assay: Antimicrobial activity against methicillin-resistant Staphylococcus aureus 141/6 by twofold dilution technique
Staphylococcus aureus [23] = assay: Antimicrobial activity against Staphylococcus aureus ATCC 25923 after 18 hrs by twofold dilution technique; conditions: ATCC 25923, 18 h
Staphylococcus aureus [24] = assay: Antimicrobial activity against Staphylococcus aureus NCTC 4163 after 18 hrs by twofold dilution technique; conditions: NCTC 4163, 18 h
Staphylococcus aureus [25] = assay: Antimicrobial activity against Methicillin susceptible Staphylococcus aureus 206/7 by twofold dilution technique
Micrococcus luteus [26] = assay: Antimicrobial activity against Micrococcus luteus ATCC 9341 at 400 ug after 18 hrs by disk diffusion method
Bacillus subtilis [27] = assay: Antimicrobial activity against Bacillus subtilis ATCC 6633 after 18 hrs by twofold dilution technique; conditions: ATCC 6633, 18 h
Micrococcus luteus [28] = assay: Antimicrobial activity against Micrococcus luteus ATCC 10240 by twofold dilution technique
Staphylococcus aureus [29] = assay: Antimicrobial activity against Methicillin susceptible Staphylococcus aureus 243/7 by twofold dilution technique
Staphylococcus aureus [30] = assay: Antimicrobial activity against methicillin-resistant Staphylococcus aureus 200/7 by twofold dilution technique
Enterococcus hirae [31] = assay: Antimicrobial activity against Enterococcus hirae ATCC 10541 after 18 hrs by twofold dilution technique; conditions: ATCC 10541, 18 h
Staphylococcus aureus [32] = assay: Antimicrobial activity against Methicillin susceptible Staphylococcus aureus 238/7 by twofold dilution technique
Staphylococcus aureus [33] = assay: Antimicrobial activity against Methicillin susceptible Staphylococcus aureus 242/7 by twofold dilution technique
Staphylococcus aureus [34] = assay: Antimicrobial activity against Methicillin susceptible Staphylococcus aureus 237/7 by twofold dilution technique
Staphylococcus aureus [35] = assay: Antimicrobial activity against Staphylococcus aureus ATCC 6538 after 18 hrs by twofold dilution technique; conditions: ATCC 6538, 18 h
Staphylococcus aureus [36] = assay: Antimicrobial activity against Staphylococcus aureus NCTC 4163 at 400 ug after 18 hrs by disk diffusion method; conditions: NCTC 4163, 18 h, read-out: DIZ
Staphylococcus aureus [37] = assay: Antimicrobial activity against Staphylococcus aureus ATCC 25923 at 400 ug after 18 hrs by disk diffusion method; conditions: ATCC 25923, 18 h, read-out: DIZ
Staphylococcus aureus [38] = assay: Antimicrobial activity against Methicillin susceptible Staphylococcus aureus 212/7 by twofold dilution technique
Bacillus subtilis [39] = assay: Antimicrobial activity against Bacillus subtilis ATCC 6633 at 400 ug after 18 hrs by disk diffusion method; conditions: ATCC 6633, 18 h, read-out: DIZ
Staphylococcus aureus [40] = assay: Antimicrobial activity against methicillin-resistant Staphylococcus aureus 236/7 by twofold dilution technique

SMILES	MIC (Staphylococcus aureus [1]) [µg/mL]	MIC (Micrococcus luteus [2]) [µg/mL]	MIC (Staphylococcus aureus [3]) [µg/mL]	MIC (Staphylococcus aureus [4]) [µg/mL]	MIC (Staphylococcus aureus [5]) [µg/mL]	MIC (Staphylococcus aureus [6]) [µg/mL]	zone of inhibition at 400 µg/disc (Staphylococcus aureus [7]) [mm]	MIC (Staphylococcus aureus [8]) [µg/mL]	zone of inhibition at 400 µg/disc (Bacillus cereus [9]) [mm]	MIC (Staphylococcus aureus [10]) [µg/mL]	MIC (Staphylococcus aureus [11]) [µg/mL]	MIC (Staphylococcus aureus [12]) [µg/mL]	MIC [13] [µg/mL]	MIC (Staphylococcus aureus [14]) [µg/mL]	zone of inhibition at 400 µg/disc (Micrococcus luteus [15]) [mm]	zone of inhibition at 400 µg/disc (Staphylococcus aureus [17]) [mm]	MIC (Staphylococcus aureus [18]) [µg/mL]	zone of inhibition at 400 µg/disc [19] [mm]	MIC (Staphylococcus aureus [20]) [µg/mL]	MIC (Bacillus cereus [21]) [µg/mL]	further results
Cc1cc2c(C(C)C)c(O)c(O)c(/C=N/N3CCN(CCO)CC3)c2c(O)c1-c1c(C)cc2c(C(C)C)c(O)c(O)c(/C=N/N3CCN(CCO)CC3)c2c1O	50 (≈ 64.7 µM)	50 (≈ 64.7 µM)	50 (≈ 64.7 µM)	50 (≈ 64.7 µM)	25 (≈ 32.3 µM)	50 (≈ 64.7 µM)	12	50 (≈ 64.7 µM)	12	25 (≈ 32.3 µM)	50 (≈ 64.7 µM)	50 (≈ 64.7 µM)	200 (≈ 259 µM)	50 (≈ 64.7 µM)	15	12	50 (≈ 64.7 µM)	14	50 (≈ 64.7 µM)	25 (≈ 32.3 µM)	diameter of the inhibition zone (DIZ) (Enterococcus hirae [16]): inactive; MIC (Staphylococcus aureus [22]): 50 µg/mL (≈ 64.7 µM); MIC (Staphylococcus aureus [23]): 50 µg/mL (≈ 64.7 µM); MIC (Staphylococcus aureus [24]): 50 µg/mL (≈ 64.7 µM); MIC (Staphylococcus aureus [25]): 25 µg/mL (≈ 32.3 µM); diameter of the inhibition zone (DIZ) (Micrococcus luteus [26]): inactive; MIC (Bacillus subtilis [27]): 100 µg/mL (≈ 129 µM); MIC (Micrococcus luteus [28]): 50 µg/mL (≈ 64.7 µM); MIC (Staphylococcus aureus [29]): 25 µg/mL (≈ 32.3 µM); MIC (Staphylococcus aureus [30]): 50 µg/mL (≈ 64.7 µM); MIC (Enterococcus hirae [31]): 50 µg/mL (≈ 64.7 µM); MIC (Staphylococcus aureus [32]): 25 µg/mL (≈ 32.3 µM); MIC (Staphylococcus aureus [33]): 12.5 µg/mL (≈ 16.2 µM); MIC (Staphylococcus aureus [34]): 25 µg/mL (≈ 32.3 µM); MIC (Staphylococcus aureus [35]): 25 µg/mL (≈ 32.3 µM); zone of inhibition at 400 µg/disc (Staphylococcus aureus [36]): 13 mm; zone of inhibition at 400 µg/disc (Staphylococcus aureus [37]): 13 mm; MIC (Staphylococcus aureus [38]): 50 µg/mL (≈ 64.7 µM); zone of inhibition at 400 µg/disc (Bacillus subtilis [39]): 12 mm; MIC (Staphylococcus aureus [40]): 25 µg/mL (≈ 32.3 µM)
COCCN/N=C/c1c(O)c(O)c(C(C)C)c2cc(C)c(-c3c(C)cc4c(C(C)C)c(O)c(O)c(/C=N/NCCOC)c4c3O)c(O)c12	50 (≈ 75.4 µM)	50 (≈ 75.4 µM)	50 (≈ 75.4 µM)	50 (≈ 75.4 µM)	50 (≈ 75.4 µM)	100 (≈ 151 µM)	14	100 (≈ 151 µM)	13	100 (≈ 151 µM)	100 (≈ 151 µM)	50 (≈ 75.4 µM)	400 (≈ 604 µM)	50 (≈ 75.4 µM)	14	13	100 (≈ 151 µM)	15	100 (≈ 151 µM)	50 (≈ 75.4 µM)	zone of inhibition at 400 µg/disc (Enterococcus hirae [16]): 11 mm; MIC (Staphylococcus aureus [22]): 100 µg/mL (≈ 151 µM); MIC (Staphylococcus aureus [23]): 50 µg/mL (≈ 75.4 µM); MIC (Staphylococcus aureus [24]): 100 µg/mL (≈ 151 µM); MIC (Staphylococcus aureus [25]): 50 µg/mL (≈ 75.4 µM); diameter of the inhibition zone (DIZ) (Micrococcus luteus [26]): inactive; MIC (Bacillus subtilis [27]): 400 µg/mL (≈ 604 µM); MIC (Micrococcus luteus [28]): 100 µg/mL (≈ 151 µM); MIC (Staphylococcus aureus [29]): 100 µg/mL (≈ 151 µM); MIC (Staphylococcus aureus [30]): 50 µg/mL (≈ 75.4 µM); MIC (Enterococcus hirae [31]): 100 µg/mL (≈ 151 µM); MIC (Staphylococcus aureus [32]): 50 µg/mL (≈ 75.4 µM); MIC (Staphylococcus aureus [33]): 50 µg/mL (≈ 75.4 µM); MIC (Staphylococcus aureus [34]): 100 µg/mL (≈ 151 µM); MIC (Staphylococcus aureus [35]): 50 µg/mL (≈ 75.4 µM); zone of inhibition at 400 µg/disc (Staphylococcus aureus [36]): 14 mm; zone of inhibition at 400 µg/disc (Staphylococcus aureus [37]): 15 mm; MIC (Staphylococcus aureus [38]): 100 µg/mL (≈ 151 µM); zone of inhibition at 400 µg/disc (Bacillus subtilis [39]): 13 mm; MIC (Staphylococcus aureus [40]): 100 µg/mL (≈ 151 µM)
Cc1cc2c(C(C)C)c(O)c(O)c(C=O)c2c(O)c1-c1c(C)cc2c(C(C)C)c(O)c(O)c(C=O)c2c1O [GOSSYPOL]	50 (≈ 96.4 µM)	25 (≈ 48.2 µM)	50 (≈ 96.4 µM)	50 (≈ 96.4 µM)	12.5 (≈ 24.1 µM)	50 (≈ 96.4 µM)	15	50 (≈ 96.4 µM)	15	25 (≈ 48.2 µM)	50 (≈ 96.4 µM)	50 (≈ 96.4 µM)	100 (≈ 193 µM)	50 (≈ 96.4 µM)	16	14	50 (≈ 96.4 µM)	16	50 (≈ 96.4 µM)	25 (≈ 48.2 µM)	zone of inhibition at 400 µg/disc (Enterococcus hirae [16]): 14 mm; MIC (Staphylococcus aureus [22]): 50 µg/mL (≈ 96.4 µM); MIC (Staphylococcus aureus [23]): 25 µg/mL (≈ 48.2 µM); MIC (Staphylococcus aureus [24]): 50 µg/mL (≈ 96.4 µM); MIC (Staphylococcus aureus [25]): 25 µg/mL (≈ 48.2 µM); zone of inhibition at 400 µg/disc (Micrococcus luteus [26]; ATCC 9341, 18 h, read-out: DIZ): 12 mm; MIC (Bacillus subtilis [27]): 100 µg/mL (≈ 193 µM); MIC (Micrococcus luteus [28]): 50 µg/mL (≈ 96.4 µM); MIC (Staphylococcus aureus [29]): 25 µg/mL (≈ 48.2 µM); MIC (Staphylococcus aureus [30]): 50 µg/mL (≈ 96.4 µM); MIC (Enterococcus hirae [31]): 25 µg/mL (≈ 48.2 µM); MIC (Staphylococcus aureus [32]): 25 µg/mL (≈ 48.2 µM); MIC (Staphylococcus aureus [33]): 12.5 µg/mL (≈ 24.1 µM); MIC (Staphylococcus aureus [34]): 25 µg/mL (≈ 48.2 µM); MIC (Staphylococcus aureus [35]): 12.5 µg/mL (≈ 24.1 µM); zone of inhibition at 400 µg/disc (Staphylococcus aureus [36]): 16 mm; zone of inhibition at 400 µg/disc (Staphylococcus aureus [37]): 15 mm; MIC (Staphylococcus aureus [38]): 50 µg/mL (≈ 96.4 µM); zone of inhibition at 400 µg/disc (Bacillus subtilis [39]): 15 mm; MIC (Staphylococcus aureus [40]): 50 µg/mL (≈ 96.4 µM)
